Reference: ChEMBL document CHEMBL5370538, “Discovery of novel 6-p-tolyl-3-(3,4,5-trimethoxybenzyl)-7H-[1,2,4]triazolo[3,4-b][1,3,4]thiadiazine derivative as a potent tubulin inhibitor with promising in vivo antitumor activity” (Eur J Med Chem, 2023)
Activity calls are given as the source filed them. The calls are words filed in the database; no cut-off is given here.

Experiments:
HUVEC [1] = test: Antivascular activity against human HUVEC cells assessed as inhibition of capillary tube formation incubated for 24 hrs by crystal violet staining based matrigel-transwell assay; type: functional, cell-based
HeLa [2] = test: Induction of apoptosis in human HeLa cells assessed as late apoptotic cells at 0.03 uM incubated for 24 hrs Annexin V-FITC/PI staining based flow cytometry analysis (Rvb= 2.13 %); type: functional
[3] = Cmax in Sprague-Dawley rat at 10 mg/kg,po measured upto 24 hrs by LC-MS/MS analysis; type: ADME, organism-based; parameters: time < 24 hrs, dose 10 mg/kg, route po; settings: in vivo
HUVEC [4] = test: Antivascular activity against human HUVEC cells assessed as inhibition of cell migration incubated for 24 hrs by wound healing assay; type: functional, cell-based
[5] = AUC (0-t) in Sprague-Dawley rat at 10 mg/kg,po measured upto 24 hrs by LC-MS/MS analysis; type: ADME, organism-based; parameters: dose 10 mg/kg, time < 24 hrs, route po; settings: in vivo
HeLa [6] = test: Induction of cell cycle arrest in human HeLa cells assessed as accumulation of cells at G2/M phase at 0.06 uM incubated for 24 hrs by propidium iodide staining based flow cytometry (reference value: 17.38 %); type: functional
HeLa [7] = test: Induction of apoptosis in human HeLa cells assessed as viable cells at 0.12 uM incubated for 24 hrs Annexin V-FITC/PI staining based flow cytometry analysis (Rvb= 95.9 %); type: functional; settings: read-out: Activity
[8] = Volume of distribution at steady state in Sprague-Dawley rat at 10 mg/kg,po measured upto 24 hrs by LC-MS/MS analysis; type: ADME, organism-based; settings: in vivo
[9] = Tmax in Sprague-Dawley rat at 10 mg/kg,po measured upto 24 hrs by LC-MS/MS analysis; type: ADME, organism-based; settings: in vivo
A549 [10] = test: Antiproliferative activity against human A549 cells assessed as cell growth inhibition incubated for 48 hrs by MTT assay; type: functional, cell-based; settings: A549, 48 h
[11] = Volume of distribution at steady state in Sprague-Dawley rat at 2 mg/kg,iv measured upto 24 hrs by LC-MS/MS analysis; type: ADME, organism-based; settings: in vivo
MDA-MB-231 = test: Antiproliferative activity against human MDA-MB-231 cells assessed as cell growth inhibition incubated for 48 hrs by MTT assay; type: functional, cell-based; settings: MDA-MB-231, 48 h
HeLa [12] = test: Induction of apoptosis in human HeLa cells assessed as early apoptotic cells at 0.12 uM incubated for 24 hrs Annexin V-FITC/PI staining based flow cytometry analysis (Rvb= 1.85 %); type: functional
A549 [13] = test: Antitumor activity against human A549 cells xenografted in Balb/c mouse assessed as inhibition of tumor weight at 60 mg/kg,ip administrated for 7 days; type: functional, organism-based; settings: time 7.0 day
[14] = MRT (0-t) in Sprague-Dawley rat at 2 mg/kg,iv measured upto 24 hrs by LC-MS/MS analysis; type: ADME, organism-based; settings: in vivo

With `COc1cc(Cc2nnc3n2N=C(c2ccc(C)cc2)CS3)cc(OC)c1OC` the Activity (HUVEC [1]) was “Dose-Dependent Effect”, the Activity (HeLa [2]) was 4.9% and the Cmax [3] was 28.4 ng/mL. For the same compound, the Activity (HUVEC [4]) was “Dose-Dependent Effect”, the AUC(0-t) at 24 h [5] was 122 ng·h/mL and the Activity (HeLa [6]) was 69.71%. It also gave a viability at 0.12 µM (HeLa [7]) of 65.2%, a Vdss [8] of 1036.2 L/kg and a Tmax [9] of 4.3 h. The IC50 (A549 [10]) was 0.96 µM, the Vdss [11] was 91.5 L/kg and the IC50 (MDA-MB-231) was 1.89 µM. The Activity (HeLa [12]) was 24%, the Activity (A549 [13]) was “Active” and the MRT last at 24 h [14] was 1.2 h.
